Results reported in ChEMBL document CHEMBL4715780, “Biological evaluation of tetracationic compounds based on two 1,4-diazabicyclo[2.2.2]octane moieties connected by different linkers” (Bioorg Med Chem, 2016).

Key:
Type in all cases: functional
Staphylococcus aureus [1] = assay: Antibacterial activity against methicillin-resistant Staphylococcus aureus CEMTC 675 assessed as bacterial growth inhibition by CLSI protocol based serial microdilution method
Proteus vulgaris [2] = assay: Antibacterial activity against Proteus vulgaris ATCC 6380 assessed as bacterial growth inhibition by CLSI protocol based serial microdilution method
Staphylococcus aureus [3] = assay: Antibacterial activity against methicillin-resistant Staphylococcus aureus CEMTC 675 assessed as concentration required to inhibit visible growth by CLSI protocol based serial microdilution method
Staphylococcus aureus [4] = assay: Antibacterial activity against methicillin-resistant Staphylococcus aureus CEMTC 1695 assessed as bacterial growth inhibition by CLSI protocol based serial microdilution method
Salmonella typhimurium [5] = assay: Antibacterial activity against Salmonella enterica ATCC 14028 assessed as concentration required to inhibit visible growth by CLSI protocol based serial microdilution method; conditions: Salmonella enterica subsp. enterica serovar Typhimurium
Citrobacter freundii [6] = assay: Antibacterial activity against Citrobacter freundii ATCC 8090 assessed as bacterial growth inhibition by CLSI protocol based serial microdilution method
Enterococcus faecalis [7] = assay: Antibacterial activity against Enterococcus faecalis ATCC 51299 assessed as bacterial growth inhibition by CLSI protocol based serial microdilution method
Citrobacter freundii [8] = assay: Antibacterial activity against Citrobacter freundii ATCC 8090 assessed as concentration required to inhibit visible growth by CLSI protocol based serial microdilution method
Staphylococcus aureus [9] = assay: Antibacterial activity against methicillin-resistant Staphylococcus aureus CEMTC 1695 assessed as concentration required to inhibit visible growth by CLSI protocol based serial microdilution method
Staphylococcus aureus [10] = assay: Antibacterial activity against methicillin-resistant Staphylococcus aureus CEMTC 1733 assessed as bacterial growth inhibition by CLSI protocol based serial microdilution method
Staphylococcus aureus [11] = assay: Antibacterial activity against methicillin-resistant Staphylococcus aureus CEMTC 707 assessed as concentration required to inhibit visible growth by CLSI protocol based serial microdilution method
Pseudomonas aeruginosa [12] = assay: Antibacterial activity against Pseudomonas aeruginosa ATCC 9027 assessed as bacterial growth inhibition by CLSI protocol based serial microdilution method
Pseudomonas aeruginosa [13] = assay: Antibacterial activity against Pseudomonas aeruginosa ATCC 9027 assessed as concentration required to inhibit visible growth by CLSI protocol based serial microdilution method
Staphylococcus aureus [14] = assay: Antibacterial activity against methicillin-resistant Staphylococcus aureus CEMTC 1850 assessed as bacterial growth inhibition by CLSI protocol based serial microdilution method
Staphylococcus aureus [15] = assay: Antibacterial activity against methicillin-resistant Staphylococcus aureus CEMTC 1732 assessed as concentration required to inhibit visible growth by CLSI protocol based serial microdilution method
Proteus vulgaris [16] = assay: Antibacterial activity against Proteus vulgaris ATCC 6380 assessed as concentration required to inhibit visible growth by CLSI protocol based serial microdilution method
Staphylococcus aureus [17] = assay: Antibacterial activity against methicillin-resistant Staphylococcus aureus CEMTC 707 assessed as bacterial growth inhibition by CLSI protocol based serial microdilution method
Escherichia coli [18] = assay: Antibacterial activity against Escherichia coli ATCC 25922 assessed as bacterial growth inhibition by CLSI protocol based serial microdilution method
Staphylococcus aureus [19] = assay: Antibacterial activity against methicillin-resistant Staphylococcus aureus CEMTC 1733 assessed as concentration required to inhibit visible growth by CLSI protocol based serial microdilution method
Staphylococcus aureus [20] = assay: Antibacterial activity against […] Staphylococcus aureus ATCC 25923 assessed as concentration required to inhibit visible growth by CLSI protocol based serial microdilution method
Staphylococcus aureus [21] = assay: Antibacterial activity against […] Staphylococcus aureus ATCC 25923 assessed as bacterial growth inhibition by CLSI protocol based serial microdilution method
Enterococcus faecalis [22] = assay: Antibacterial activity against Enterococcus faecalis ATCC 51299 assessed as concentration required to inhibit visible growth by CLSI protocol based serial microdilution method
Staphylococcus aureus [23] = assay: Antibacterial activity against methicillin-resistant Staphylococcus aureus CEMTC 1850 assessed as concentration required to inhibit visible growth by CLSI protocol based serial microdilution method
Salmonella typhimurium [24] = assay: Antibacterial activity against Salmonella enterica ATCC 14028 assessed as bacterial growth inhibition by CLSI protocol based serial microdilution method; conditions: Salmonella enterica subsp. enterica serovar Typhimurium
Staphylococcus aureus [25] = assay: Antibacterial activity against methicillin-resistant Staphylococcus aureus CEMTC 1732 assessed as bacterial growth inhibition by CLSI protocol based serial microdilution method
Escherichia coli [26] = assay: Antibacterial activity against Escherichia coli ATCC 25922 assessed as concentration required to inhibit visible growth by CLSI protocol based serial microdilution method

For GENTAMICIN, the MIC (Staphylococcus aureus [1]) was over 100 µg/mL, the MIC (Proteus vulgaris [2]) was 0.8 µg/mL and the MBC (Staphylococcus aureus [3]) was over 100 µg/mL. For the same sequence, the MIC (Staphylococcus aureus [4]) was over 100 µg/mL, the MBC (Salmonella typhimurium [5]) was 1.6 µg/mL and the MIC (Citrobacter freundii [6]) was 0.4 µg/mL. For the same sequence, the MIC (Enterococcus faecalis [7]) was 50 µg/mL, the MBC (Citrobacter freundii [8]) was 0.8 µg/mL and the MBC (Staphylococcus aureus [9]) was over 100 µg/mL. It also gave an MIC (Staphylococcus aureus [10]) of 1 µg/mL, an MBC (Staphylococcus aureus [11]) of 1 µg/mL and an MIC (Pseudomonas aeruginosa [12]) of over 400 µg/mL. For the same sequence, the MBC (Pseudomonas aeruginosa [13]) was over 400 µg/mL, the MIC (Staphylococcus aureus [14]) was 10 µg/mL and the MBC (Staphylococcus aureus [15]) was over 100 µg/mL. For the same sequence, the MBC (Proteus vulgaris [16]) was 1.6 µg/mL, the MIC (Staphylococcus aureus [17]) was 1 µg/mL and the MIC (Escherichia coli [18]) was 50 µg/mL. It also gave an MBC (Staphylococcus aureus [19]) of 1 µg/mL, an MBC (Staphylococcus aureus [20]) of 100 µg/mL and an MIC (Staphylococcus aureus [21]) of 50 µg/mL. For the same sequence, the MBC (Enterococcus faecalis [22]) was 100 µg/mL, the MBC (Staphylococcus aureus [23]) was over 100 µg/mL and the MIC (Salmonella typhimurium [24]) was 0.8 µg/mL. For the same sequence, the MIC (Staphylococcus aureus [25]) was over 100 µg/mL and the MBC (Escherichia coli [26]) was 100 µg/mL.
